Common to all, as to assay type: in vivo
Data set [1] deals with Beet Armyworm (Spodoptera exigua, LAPHEG). Briefly: Bioassays on Beet Armyworm (BAW), 128-well diet tray assay. Conditions: Spodoptera exigua; for mortality at 50 µg/cm2: 168 h, second instar larvae, 50 μg/cm^2 of test molecule on artificial diet, 25° C., five to seven days, average of eight wells, read-out: BAW % Control (or Mortality) rating. The method in brief:
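Mortality of second-instar larvae (1–5/well) on artificial diet treated with 50 μg/cm^2 compound, read after 5–7 days at 25° C.; values are means of eight wells.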

Data set [2] concerns Cabbage Looper (Trichoplusia ni, TRIPNI). In words: Bioassays on Cabbage Looper (CL), 128-well diet tray assay. Particulars: Trichoplusia ni; for mortality at 50 µg/cm2: 168 h, second instar larvae, 50 μg/cm^2 of test molecule on artificial diet, 25° C., five to seven days, average of eight wells, read-out: CL % Control (or Mortality) rating. The method in brief:
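Activity is mean percent mortality over eight wells of second-instar larvae exposed to diet treated at 50 μg/cm^2 for 5–7 days at 25° C.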

Data set [3] has as its system Yellow Fever Mosquito (Aedes aegypti, AEDSAE). Conditions: for YFM rating: Table ABC / ABC-DP rating; for YFM % Control (or Mortality) rating: about 1 day-old larvae, 4000 ppm master solution diluted with 90:10 water/acetone, 15 μL per well plus 220 μL larval mixture, 3 days. The method in brief:
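Larvae ~1 day old, in liver powder/water; compound from 4000 ppm DMSO stock diluted with water/acetone (90:10); 6 reps; lidded, RT, 3 d; mortality scored per well, rated.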

Setting [4] is: Beet Armyworm, Table ABC / ABC-DP rating, read-out: BAW rating.
[5] abbreviates: Cabbage Looper, Table ABC / ABC-DP rating, read-out: CL rating.
The mark [6] stands for this setting: Table ABC: Biological Results, species BAW, read-out: BAW.
[7] abbreviates: Table ABC: Biological Results, species CL, read-out: CL.
The mark [8] stands for this setting: Table ABC: Biological Results, species YFM.
The mark [9] stands for this setting: Beet Armyworm, rating class, read-out: BAW.
[10] abbreviates: Cabbage Looper, rating class, read-out: CL.
Setting [11] is: Yellow Fever Mosquito, rating class.

Where two headings read alike, the source gives them in different places.

By mortality is commonly meant the percentage killed.

On to `Cc1cc(NC(=O)[C@H]2[C@H](c3ccc(F)c(Cl)c3)C2(Cl)Cl)cc(C(=O)NCC(F)(F)C(F)(F)F)c1F` (relative stereo) [F2031, trans-5-(2,2-Dichloro-3-(3-chloro-4-fluorophenyl)cyclopropane-1-carboxamido)-2-fluoro-3-methyl-N-(2,2,3,3,3-pentafluoropropyl)benzamide], for which the pest or weed control at 50 µg/cm2 in data set [1] (setting [4]) and in data set [2] (setting [5]) was 50 to 100% each time. The YFM rating entry in data set [3] (Yellow Fever Mosquito) is “A (80–100)”.

Consider `O=C(Nc1ccc(F)cc1F)c1cc(NC(=O)[C@H]2[C@H](c3cc(Cl)cc(S(F)(F)(F)(F)F)c3)C2(Cl)Cl)ccc1Cl` (relative stereo) [F1232, trans-2-chloro-5-(2,2-dichloro-3-(3-chloro-5-(pentafluoro-λ^6-sulfanyl)phenyl)cyclopropane-1-carboxamido)-N-(2,4-difluorophenyl)benzamide], for which the pest or weed control at 50 µg/cm2 in data set [1] (setting [6]) and in data set [2] (setting [7]) was 50 to 100% each time. Besides, the YFM entry in data set [3] (setting [8]) was “A (80–100)”.

For `O=C(Nc1c(F)ccc(NC(=O)c2cc(NC(=O)[C@H]3[C@H](c4ccc(Cl)c(Cl)c4)C3(Cl)Cl)ccc2Cl)c1F)c1ccccc1` [F1253, N-(3-Benzamido-2,4-difluorophenyl)-2-chloro-5-((1R,3R)-2,2-dichloro-3-(3,4-dichlorophenyl)cyclopropane-1-carboxamido)benzamide], the pest or weed control at 50 µg/cm2 in data set [1] (setting [6]) and in data set [2] (setting [7]) was 50 to 100% throughout. Further, the YFM entry in data set [3] (setting [8]) is reported as “A (80–100)”.

On to `O=C(Nc1ccc(F)c(NC(=O)C(F)F)c1F)c1cc(NC(=O)[C@H]2[C@H](c3cccc(C(F)(F)F)c3)C2(Cl)Cl)ccc1Cl` [F1675, 2-Chloro-5-((1R,3R)-2,2-dichloro-3-(3-(trifluoromethyl)phenyl)cyclopropane-1-carboxamido)-N-(3-(2,2-difluoroacetamido)-2,4-difluorophenyl)benzamide], for which the pest or weed control at 50 µg/cm2 in data set [1] (setting [9]) and in data set [2] (setting [10]) was 50 to 100% in each case. For the same compound, the YFM entry in data set [3] (setting [11]) is “A (80–100)”.

In the case of `O=C(Nc1cc(NC(=O)C(F)(F)F)c(F)cc1F)c1cc(NC(=O)[C@H]2[C@H](c3ccc(F)c(C(F)(F)F)c3)C2(Cl)Cl)ccc1F` [F1557, 5-((1R,3R)-2,2-Dichloro-3-(4-fluoro-3-(trifluoromethyl)phenyl)cyclopropane-1-carboxamido)-N-(2,4-difluoro-5-(2,2,2-trifluoroacetamido)phenyl)-2-fluorobenzamide], the pest or weed control at 50 µg/cm2 in data set [1] (setting [9]) and in data set [2] (setting [10]) was 50 to 100% in each case. Further, in data set [3] (setting [11]), the YFM result is reported as “A (80–100)”.

For the compound `O=C(CCC1CC1)Nc1c(F)ccc(NC(=O)c2cc(NC(=O)[C@H]3[C@H](c4ccc(F)c(C(F)(F)F)c4)C3(Cl)Cl)ccc2Cl)c1F` [F1854, 2-Chloro-N-(3-(3-cyclopropylpropanamido)-2,4-difluorophenyl)-5-((1R,3R)-2,2-dichloro-3-(4-fluoro-3-(trifluoromethyl)phenyl)cyclopropane-1-carboxamido)benzamide], the pest or weed control at 50 µg/cm2 in data set [1] (setting [4]) and in data set [2] (setting [5]) was 50 to 100% in each case. For the same compound, the YFM rating result in data set [3] (Yellow Fever Mosquito) is on record as “A (80–100)”.

Consider `Cc1cc(N)ccc1NC(=O)c1cc(NC(=O)[C@H]2[C@H](c3cc(Cl)cc(Cl)c3)C2(Cl)Cl)ccc1Cl` (relative stereo) [DP4, trans-N-(4-Amino-2-methylphenyl)-2-chloro-5-(2,2-dichloro-3-(3,5-dichlorophenyl)cyclopropane-1-carboxamido)benzamide], for which the mortality at 50 µg/cm2 in data set [1] and in data set [2] was 50 to 100% each time. Further, the pest or weed control at 50 µg/cm2 in data set [1] (setting [4]) and in data set [2] (setting [5]) was 50 to 100% in each case. Also, the YFM rating entry in data set [3] (Yellow Fever Mosquito) was “A (80–100)”. Moreover, the “YFM % Control (or Mortality) rating” value in data set [3] is “A (80–100)”.

Consider `Nc1c(F)ccc(NC(=O)c2cc(NC(=O)[C@H]3[C@H](c4cccc(Cl)c4)C3(Cl)Cl)ccc2Cl)c1F` (relative stereo) [F1595, trans-N-(3-Amino-2,4-difluorophenyl)-2-chloro-5-(2,2-dichloro-3-(3-chlorophenyl)cyclopropane-1-carboxamido)benzamide], for which the pest or weed control at 50 µg/cm2 in data set [1] (setting [9]) and in data set [2] (setting [10]) was 50 to 100% in each case. For the same compound, the YFM entry in data set [3] (setting [11]) is “A (80–100)”.

In the case of `O=C(NNC(=O)c1cc(NC(=O)[C@H]2[C@H](c3cc(Cl)cc(Cl)c3)C2(Cl)Cl)ccc1Cl)c1ccccn1` (relative stereo) [F2531, trans-2,2-Dichloro-N-(4-chloro-3-(2-picolinoylhydrazine-1-carbonyl)phenyl)-3-(3,5-dichlorophenyl)cyclopropane-1-carboxamide], the pest or weed control at 50 µg/cm2 in data set [1] (setting [4]) and in data set [2] (setting [5]) was 50 to 100% in each case. In addition, the YFM rating result in data set [3] (Yellow Fever Mosquito) was “A (80–100)”.

As for `Cc1cc(NC(=O)OC(C)(C)C)ccc1NC(=O)c1cc(NC(=O)[C@H]2[C@H](c3cc(Cl)cc(Cl)c3)C2(Cl)Cl)ccc1Cl` (relative stereo) [DP10, trans-tert-butyl-(4-(2-chloro-5-(2,2-dichloro-3-(3,5-dichlorophenyl)cyclopropane-1-carboxamido)benzamido)-3-methylphenyl)carbamate], the mortality at 50 µg/cm2 in data set [1] and in data set [2] was 50 to 100% throughout. The pest or weed control at 50 µg/cm2 in data set [1] (setting [4]) and in data set [2] (setting [5]) was 50 to 100% in each case. The YFM rating entry in data set [3] (Yellow Fever Mosquito) is reported as “A (80–100)”. In data set [3], the “YFM % Control (or Mortality) rating” value is “A (80–100)”.

For `O=C(NCC(F)(F)F)c1cc(NC(=O)[C@H]2[C@H](c3cc(Br)cc(S(F)(F)(F)(F)F)c3)C2(Cl)Cl)ccc1Cl` (relative stereo) [F2008, trans-5-(3-(3-Bromo-5-(pentafluoro-λ^6-sulfanyl)phenyl)-2,2-dichlorocyclopropane-1-carboxamido)-2-chloro-N-(2,2,2-trifluoroethyl)benzamide], the pest or weed control at 50 µg/cm2 in data set [1] (setting [4]) and in data set [2] (setting [5]) was 50 to 100% each time. Also, in data set [3] (Yellow Fever Mosquito), the YFM rating entry is “A (80–100)”.

On to `O=C(NNc1cccc(C(F)(F)F)c1)c1cc(NC(=O)[C@H]2[C@H](c3cc(Cl)cc(Cl)c3)C2(Cl)Cl)ccc1Cl` (relative stereo) [F2572, trans-2,2-Dichloro-N-(4-chloro-3-(2-(3-(trifluoromethyl)phenyl)hydrazine-1-carbonyl)phenyl)-3-(3,5-dichlorophenyl)cyclopropane-1-carboxamide], for which the mortality at 50 µg/cm2 in data set [1] and in data set [2] was 50 to 100% each time. For the same compound, the pest or weed control at 50 µg/cm2 in data set [1] (setting [4]) and in data set [2] (setting [5]) was 50 to 100% each time. Moreover, the YFM rating entry in data set [3] (Yellow Fever Mosquito) was “A (80–100)”. In data set [3], the “YFM % Control (or Mortality) rating” value was “A (80–100)”.

As for `O=C(Nc1ccc(F)c(NC(=O)C(F)(F)F)c1F)c1cc(NC(=O)[C@H]2[C@H](c3cc(Cl)cc(Cl)c3)C2(Cl)Cl)cc(F)c1F` [F1441, 5-((1R,3R)-2,2-Dichloro-3-(3,5-dichlorophenyl)cyclopropane-1-carboxamido)-N-(2,4-difluoro-3-(2,2,2-trifluoroacetamido)phenyl)-2,3-difluorobenzamide], the pest or weed control at 50 µg/cm2 in data set [1] (setting [9]) and in data set [2] (setting [10]) was 50 to 100% in each case. The YFM result in data set [3] (setting [11]) is given as “A (80–100)”.

Consider `Nc1c(F)ccc(NC(=O)c2cc(NC(=O)[C@H]3[C@@H](c4cc(F)c(Cl)c(Cl)c4)C3(Cl)Cl)ccc2Cl)c1F` (relative stereo) [F1047, cis-N-(3-Amino-2,4-difluorophenyl)-2-chloro-5-(2,2-dichloro-3-(3,4-dichloro-5-fluorophenyl)cyclopropane-1-carboxamido)benzamide], for which the pest or weed control at 50 µg/cm2 in data set [1] (setting [6]) and in data set [2] (setting [7]) was 50 to 100% in each case. Also, the YFM result in data set [3] (setting [8]) is recorded as “A (80–100)”.

Turning to `CC(=O)Nc1cc(NC(=O)c2cc(NC(=O)[C@H]3[C@H](c4cc(Cl)c(Cl)c(Cl)c4)C3(Cl)Cl)ccc2F)c(F)cc1F` [F1553, N-(5-Acetamido-2,4-difluorophenyl)-5-((1R,3R)-2,2-dichloro-3-(3,4,5-trichlorophenyl)cyclopropane-1-carboxamido)-2-fluorobenzamide], the pest or weed control at 50 µg/cm2 in data set [1] (setting [9]) and in data set [2] (setting [10]) was 50 to 100% in each case. The YFM entry in data set [3] (setting [11]) is recorded as “A (80–100)”.

For the compound `O=C(NNc1ccncn1)c1cc(NC(=O)[C@H]2[C@H](c3cc(Cl)cc(Cl)c3)C2(Cl)Cl)ccc1Cl` (relative stereo) [F2509, trans-2,2-Dichloro-N-(4-chloro-3-(2-(pyrimidin-4-yl)hydrazine-1-carbonyl)phenyl)-3-(3,5-dichlorophenyl)cyclopropane-1-carboxamide], the pest or weed control at 50 µg/cm2 in data set [1] (setting [4]) and in data set [2] (setting [5]) was 50 to 100% in each case. The YFM rating result in data set [3] (Yellow Fever Mosquito) is on record as “A (80–100)”.

(Values after patent publication US20250228239A1, “MOLECULES HAVING PESTICIDAL UTILITY, AND INTERMEDIATES, COMPOSITIONS, AND PROCESSES, RELATED THERETO” (priority 2024, published 2025).)
